Activity calls are given as the source filed them. The calls are words filed in the database; no cut-off is given here.
How the values were obtained:
[1] = molecular target: T1, Sphingosine 1-phosphate receptor 5 (Homo sapiens, UniProt Q9H228); assay: Agonist activity at recombinant human S1PR5 expressed in CHO cell membranes assessed as [35S]GTP-gammaS binding measured after 1.5 hrs by TopCount scintillation counting method
[2] = molecular target: T2, Sphingosine 1-phosphate receptor 4 (Homo sapiens, UniProt O95977); assay: Agonist activity at recombinant human S1PR4 expressed in CHO cell membranes assessed as [35S]GTP-gammaS binding measured after 1.5 hrs by TopCount scintillation counting method
T2 sequence (O95977 whole entry): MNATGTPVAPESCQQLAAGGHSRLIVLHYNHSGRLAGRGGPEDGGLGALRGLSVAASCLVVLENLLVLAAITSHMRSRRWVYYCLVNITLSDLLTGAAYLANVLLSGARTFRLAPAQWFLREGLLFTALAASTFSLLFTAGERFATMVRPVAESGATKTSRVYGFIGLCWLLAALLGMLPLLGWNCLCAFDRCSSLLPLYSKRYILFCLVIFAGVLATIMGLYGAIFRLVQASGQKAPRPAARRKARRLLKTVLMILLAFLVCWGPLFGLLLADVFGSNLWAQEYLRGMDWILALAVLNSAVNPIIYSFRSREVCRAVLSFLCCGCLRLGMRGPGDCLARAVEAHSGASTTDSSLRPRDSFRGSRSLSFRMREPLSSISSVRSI

[3] = molecular target: T1, Sphingosine 1-phosphate receptor 5; assay: Agonist activity at recombinant human S1PR5 expressed in CHO cell membranes assessed as [35S]GTP-gammaS binding measured after 1.5 hrs by TopCount scintillation counting method relative to S1P
[4] = molecular target: Sphingosine 1-phosphate receptor 1 (Homo sapiens, UniProt P21453); assay: Agonist activity at recombinant human S1PR1 expressed in CHO cell membranes assessed as [35S]GTP-gammaS binding measured after 1.5 hrs by TopCount scintillation counting method
[5] = molecular target: Sphingosine 1-phosphate receptor 2 (Homo sapiens, UniProt O95136); assay: Agonist activity at recombinant human S1PR2 expressed in CHO cell membranes assessed as [35S]GTP-gammaS binding measured after 1.5 hrs by TopCount scintillation counting method
[6] = molecular target: Sphingosine 1-phosphate receptor 3 (Homo sapiens, UniProt Q99500); assay: Agonist activity at recombinant human S1PR3 expressed in CHO cell membranes assessed as [35S]GTP-gammaS binding measured after 1.5 hrs by TopCount scintillation counting method
[7] = molecular target: T3, Sphingosine 1-phosphate receptor 4 (Homo sapiens) (UniProt O95977); assay: Activation of human S1PR4 expressed in CHO cells assessed as ERK1/2 phosphorylation at 10 uM treated under serum-free condition post 1 day serum starvation measured after 5 mins by Western blot analysis; type: cell-based
T3 sequence (whole entry): T2 sequence (O95977 whole entry)

[8] = molecular target: T3, Sphingosine 1-phosphate receptor 4 (Homo sapiens); assay: Activation of human S1PR4 expressed in CHO cells assessed as ERK1/2 phosphorylation at 100 nM treated under serum-free condition post 1 day serum starvation measured after 5 mins by Western blot analysis; type: cell-based
[9] = molecular target: T3, Sphingosine 1-phosphate receptor 4 (Homo sapiens); assay: Activation of human S1PR4 expressed in CHO cells assessed as suppression of forskolin-induced intracellular cAMP level at 1 to 10 uM measured after 15 mins by ELISA; type: functional, cell-based
[10] = molecular target: T2, Sphingosine 1-phosphate receptor 4; assay: Activation of human S1PR4 expressed in CHO cells assessed as suppression of forskolin-induced intracellular cAMP level measured after 15 mins by ELISA; type: functional, cell-based

T1 sequence (Q9H228 whole entry): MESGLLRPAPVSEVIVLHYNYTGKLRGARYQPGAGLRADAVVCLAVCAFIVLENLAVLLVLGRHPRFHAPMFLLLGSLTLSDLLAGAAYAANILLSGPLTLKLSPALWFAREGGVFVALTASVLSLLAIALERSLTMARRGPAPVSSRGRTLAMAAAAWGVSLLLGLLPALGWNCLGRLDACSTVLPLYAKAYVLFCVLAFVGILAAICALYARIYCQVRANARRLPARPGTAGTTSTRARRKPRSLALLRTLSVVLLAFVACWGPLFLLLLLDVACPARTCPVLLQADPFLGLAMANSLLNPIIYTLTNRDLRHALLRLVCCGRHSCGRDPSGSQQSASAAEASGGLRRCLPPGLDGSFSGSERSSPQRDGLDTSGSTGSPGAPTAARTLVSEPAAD
Chain of Sphingosine 1-phosphate receptor 1 (P21453 whole entry): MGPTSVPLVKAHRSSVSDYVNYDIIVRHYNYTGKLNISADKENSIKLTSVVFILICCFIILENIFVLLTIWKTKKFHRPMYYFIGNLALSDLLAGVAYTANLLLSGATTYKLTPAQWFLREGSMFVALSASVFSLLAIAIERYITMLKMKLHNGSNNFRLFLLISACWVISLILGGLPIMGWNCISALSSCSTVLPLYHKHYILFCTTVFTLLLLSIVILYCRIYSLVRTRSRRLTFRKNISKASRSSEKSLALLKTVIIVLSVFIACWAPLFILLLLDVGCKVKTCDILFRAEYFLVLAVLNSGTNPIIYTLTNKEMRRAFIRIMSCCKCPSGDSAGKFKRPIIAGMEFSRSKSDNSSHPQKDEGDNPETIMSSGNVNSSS
Chain of Sphingosine 1-phosphate receptor 2 (O95136 whole entry): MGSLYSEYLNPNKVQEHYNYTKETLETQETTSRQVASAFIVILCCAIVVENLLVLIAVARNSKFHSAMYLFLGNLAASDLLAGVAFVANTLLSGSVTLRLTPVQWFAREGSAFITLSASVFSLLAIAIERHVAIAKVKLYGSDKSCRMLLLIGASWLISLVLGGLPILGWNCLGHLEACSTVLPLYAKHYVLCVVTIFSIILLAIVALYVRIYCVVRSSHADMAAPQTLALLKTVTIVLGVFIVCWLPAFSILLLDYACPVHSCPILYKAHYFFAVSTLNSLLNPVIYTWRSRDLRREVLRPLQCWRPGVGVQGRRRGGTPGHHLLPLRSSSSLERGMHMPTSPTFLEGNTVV
Chain of Sphingosine 1-phosphate receptor 3 (Q99500 whole entry): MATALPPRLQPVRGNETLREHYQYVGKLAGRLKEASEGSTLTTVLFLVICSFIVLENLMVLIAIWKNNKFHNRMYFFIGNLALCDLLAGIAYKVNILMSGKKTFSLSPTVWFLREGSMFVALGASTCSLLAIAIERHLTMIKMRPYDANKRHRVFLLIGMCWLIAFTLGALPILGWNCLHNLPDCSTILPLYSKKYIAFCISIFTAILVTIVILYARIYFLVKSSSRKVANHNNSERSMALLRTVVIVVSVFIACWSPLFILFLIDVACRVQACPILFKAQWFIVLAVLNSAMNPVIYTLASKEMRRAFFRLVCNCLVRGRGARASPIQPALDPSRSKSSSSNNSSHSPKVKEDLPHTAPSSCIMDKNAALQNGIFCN

EC50 [1]: 370 nM
EC50 [2]: 200 nM
Efficacy [3]: 24%
EC50 [4]: > 100000 nM
EC50 [5]: > 100000 nM
EC50 [6]: > 100000 nM
Activity [7]: Active
Activity [8]: Active
Activity [9]: Active
EC50 [10]: 154 nM
Structure (SMILES): O=C(O)CCCNCc1cc2cccc(-c3ccc4ccccc4c3)c2s1
